Consider 25 molecules from patent US20110053770A1, “SUBSTITUTED AMINOTHIAZOLES AND THEIR USE AS FUNGICIDES” (BAYER CROPSCIENCE AG, priority 2009, published 2011).

Molecules are shown by their SMILES. Marks after values point to notes of the source that are not given here.

A short description of this series: logP by HPLC on reversed-phase columns (C 18), EEC directive 79/831 Annex V.A8. The format is physicochemical. The conditions noted are these: for log P (***) / log P (**): LC-MS; for log P (***): neutral range, pH 7.8, 0.001 molar aqueous ammonium bicarbonate and acetonitrile; for log P (*) / log P (**): acidic range; for log P (*): pH 2.3, 0.1% aqueous phosphoric acid and acetonitrile; for log P (**): pH 2.7, 0.1% aqueous formic acid and acetonitrile. As to the method:
Calibration was carried out using unbranched alkan-2-ones (having from 3 to 16 carbon atoms) with known logP values (the logP values were determined by the retention times using linear interpolation between two successive alkanones).

Take `Fc1ccc(Oc2ccccc2-c2csc(N=C3CCCCN3)n2)c(F)c1F` [compound 77, N-[(2E/Z)-piperidin-2-ylidene]-4-[2-(2,3,4-trifluorophenoxy)phenyl]-1,3-thiazole-2-amine]: the “log P (***)” value is 4.17 and the “log P (*)” value worked out at 2.01.
As for `Brc1ccccc1-c1csc(N=C2CCCCN2)n1` [compound 107, 4-(2-bromophenyl)-N-[(2E/Z)-piperidin-2-ylidene]-1,3-thiazole-2-amine], the “log P (**)” value was 1.38**.
As to `Fc1ccc(Oc2ccccc2-c2csc(N=C3CCCCN3)n2)cc1` [compound 75, 4-[2-(4-fluorophenoxy)phenyl]-N-[(2E/Z)-piperidin-2-ylidene]-1,3-thiazole-2-amine], the “log P (*)” value is reported as 1.87*.
Take `Clc1cccc(Cl)c1-c1csc(N=C2CCCCN2)n1` [compound 51, 4-(2,6-dichlorophenyl)-N-[(2E/Z)-piperidin-2-ylidene]-1,3-thiazole-2-amine]: the “log P (**)” value is on record as 1.42**.
Turning to `CC(C)(C)c1cc(Oc2ccccc2-c2csc(N=C3CCCN3)n2)ccc1Cl` [compound 101, 4-[2-(3-tert-butyl-4-chlorophenoxy)phenyl]-N-[(2E/Z)-pyrrolidin-2-ylidene]-1,3-thiazole-2-amine], the “log P (**)” value is reported as 3.09, the “log P (***)” value is listed as 5.53 and the “log P (*)” value is listed as 3.09.
`Clc1ccc(-c2csc(N=C3CCCN3)n2)cc1` [compound 96, 4-(4-chlorophenyl)-N-[(2E/Z)-pyrrolidin-2-ylidene]-1,3-thiazole-2-amine]: the “log P (**)” value is 1.57**.
As to `CC(=O)N1CCCCC1=Nc1nc(-c2cccc(F)c2F)cs1` [compound 37, 1-[(2E/Z)-2-{[4-(2,3-difluorophenyl)-1,3-thiazol-2-yl]imino}piperidin-1-yl]ethanone], the “log P (**)” value was 3.63**; 3.63***; 3.63*, the “log P (***)” value was 3.63**; 3.63***; 3.63* and the “log P (*)” value is 3.63**; 3.63***; 3.63*.
Turning to `c1ccc(Cc2ccc(-c3csc(N=C4CCCCN4)n3)cc2)cc1` [compound 94, 4-(4-benzylphenyl)-N-[(2E/Z)-piperidin-2-ylidene]-1,3-thiazole-2-amine], the “log P (**)” value is given as 2.07 and the “log P (***)” value was 4.28.
For the molecule `Fc1ccc(Cc2ccccc2-c2csc(N=C3CCCCN3)n2)c(F)c1` [compound 88, 4-[2-(2,4-difluorobenzyl)phenyl]-N-[(2E/Z)-piperidin-2-ylidene]-1,3-thiazole-2-amine], the “log P (***)” value stood at 4.27 and the “log P (*)” value was determined as 2.04.
The matching figures for `Clc1cccc(Cc2csc(N=C3CCCCN3)n2)c1` [compound 70, 4-(3-chlorobenzyl)-N-[(2E/Z)-piperidin-2-ylidene]-1,3-thiazole-2-amine]: 3.36 and 1.58.
`c1ccc(-c2csc(N=C3CCCCN3)n2)nc1` [compound 61, N-[(2E/Z)-piperidin-2-ylidene]-4-(pyridin-2-yl)-1,3-thiazole-2-amine]: the “log P (**)” value is 0.27**.
Consider `CC(=O)N1CCCCC1=Nc1nc(-c2ccc(F)c(Cl)c2)cs1` [compound 41, 1-[(2E/Z)-2-{[4-(3-chloro-4-fluorophenyl)-1,3-thiazol-2-yl]imino}piperidin-1-yl]ethanone], for which the “log P (**)” value is on record as 3.88**; 3.88***; 3.88*, the “log P (***)” value is given as 3.88**; 3.88***; 3.88* and the “log P (*)” value was 3.88**; 3.88***; 3.88*.
For `CC(=O)N1CCCCC1=Nc1nc(-c2ccccc2Oc2ccc(F)cc2F)cs1` [compound 16, 1-[(2E/Z)-2-({4-[2-(2,4-difluorophenoxy)phenyl]-1,3-thiazol-2-yl}imino)piperidin-1-yl]ethanone], the “log P (**)” value worked out at 4.36, the “log P (***)” value came out at 4.32 and the “log P (*)” value came to 4.36.
For the molecule `Clc1ccccc1-c1csc(N=C2CCCCN2)n1` [compound 20, 4-(2-chlorophenyl)-N-[(2E/Z)-piperidin-2-ylidene]-1,3-thiazole-2-amine], the “log P (**)” value turned out to be 1.63, the “log P (***)” value came out at 3.19 and the “log P (*)” value turned out to be 1.63.
Consider `c1ccc(Oc2ccc(-c3csc(N=C4CCCCN4)n3)cc2)cc1` [compound 5, 4-(4-phenoxyphenyl)-N-[(2E/Z)-piperidin-2-ylidene]-1,3-thiazole-2-amine], for which the “log P (**)” value stood at 2.17 and the “log P (***)” value came to 3.97.
Consider `COc1ccc(-c2csc(N=C3CCCCN3)n2)cc1OC` [compound 27, 4-(3,4-dimethoxyphenyl)-N-[(2E/Z)-piperidin-2-ylidene]-1,3-thiazole-2-amine], for which the “log P (**)” value is reported as 1.35, the “log P (***)” value is reported as 2.36 and the “log P (*)” value is 1.35.
As for `Clc1cc(Cl)cc(Cc2ccccc2-c2csc(N=C3CCCCN3)n2)c1` [compound 89, 4-[2-(3,5-dichlorobenzyl)phenyl]-N-[(2E/Z)-piperidin-2-ylidene]-1,3-thiazole-2-amine], the “log P (**)” value was 2.43 and the “log P (***)” value is 5.35.
Take `Cc1sc(N=C2CCCCN2)nc1-c1ccc(Cl)cc1` [compound 31, 4-(4-chlorophenyl)-5-methyl-N-[(2E/Z)-piperidin-2-ylidene]-1,3-thiazole-2-amine]: the “log P (**)” value was found to be 1.84, the “log P (***)” value is given as 3.72 and the “log P (*)” value was determined as 1.84.
`COc1cccc(-c2csc(N=C3CCCCN3)n2)c1` [compound 57, 4-(3-methoxyphenyl)-N-[(2E/Z)-piperidin-2-ylidene]-1,3-thiazole-2-amine]: the “log P (***)” value turned out to be 2.76 and the “log P (*)” value stood at 1.19.
As to `CC(=O)N1CCCCC1=Nc1nc(-c2ccc(Cl)cc2)cs1` [compound 34, 1-[(2E/Z)-2-{[4-(4-chlorophenyl)-1,3-thiazol-2-yl]imino}piperidin-1-yl]ethanone], the “log P (**)” value is given as 3.78**; 3.78***; 3.78*, the “log P (***)” value is given as 3.78**; 3.78***; 3.78* and the “log P (*)” value is reported as 3.78**; 3.78***; 3.78*.
As for `Clc1cccc(Cl)c1Cc1ccccc1-c1csc(N=C2CCCCN2)n1` [compound 91, 4-[2-(2,6-dichlorobenzyl)phenyl]-N-[(2E/Z)-piperidin-2-ylidene]-1,3-thiazole-2-amine], the “log P (**)” value amounted to 2.16 and the “log P (***)” value is 4.36.
As for `Brc1cccc(-c2csc(N=C3CCCCN3)n2)c1` [compound 46, 4-(3-bromophenyl)-N-[(2E/Z)-piperidin-2-ylidene]-1,3-thiazole-2-amine], the “log P (**)” value was 1.8**.
Regarding `FC(F)(F)c1cccc(-c2csc(N=C3CCCCN3)n2)c1` [compound 45, N-[(2E/Z)-piperidin-2-ylidene]-4-[3-(trifluoromethyl)phenyl]-1,3-thiazole-2-amine], the “log P (**)” value was 1.97 and the “log P (***)” value is listed as 3.55.
As to `Cc1ccc(Oc2ccccc2-c2csc(N=C3CCCCN3)n2)c(C)c1` [compound 1, 4-[2-(2,4-dimethylphenoxy)phenyl]-N-[(2E/Z)-piperidin-2-ylidene]-1,3-thiazole-2-amine], the “log P (**)” value was 2.66 and the “log P (***)” value is given as 4.9.
For `Brc1ccc(-c2csc(N=C3CCCCN3)n2)cc1` [compound 3, 4-(4-bromophenyl)-N-[(2E/Z)-piperidin-2-ylidene]-1,3-thiazole-2-amine], the “log P (**)” value was 1.67**.
